Data published in patent publication US20060281791A1, “Methods of increasing proliferation of adult mammalian cardiomyocytes through p38 map kinase inhibition” (CHILDREN'S MEDICAL CENTER CORPORATION, priority 2005, published 2006).
Several values for one entry are separate records, joined by “and”; a condition that tells them apart may be missing. Equal entries are not always repeated.

Test system: neonatal rat cardiomyocytes
Assay: cDNA microarray analysis (Affymetrix Rat Expression Set 230), x-fold changes of clustered genes
Assay type: cell-based
Conditions: 72 h; experiments (1) and (2); listed as FGF
Procedure: Animal experiments were performed in accordance with guidelines of Children's Hospital, Boston and UCLA. Ventricular cardiomyocytes from fetal (E19), 2-day-old (P2) and adult (250-350 g) Wistar rats (Charles River) were isolated as described with minor modifications (Engel et al. 1999; Engel et al. 2003). After digestion of fetal or neonatal hearts (0.14 mg/ml collagenase II (Invitrogen), 0.55 mg/ml pancreatin (Sigma)) cells were cultured in DMEM/F12 (GIBCO) containing 3 mM Na-pyruvate, 0.2% BSA, 0.1 mM ascorbic acid (Sigma), 0.5% Insulin-Transferrin-Selenium (100×), penicillin (100 U/ml), streptomycin (100 μg/ml), and 2 mM L-glutamine (GIBCO). Adult cardiomyocytes were cultured for 1 day in standard medium (DMEM, 25 mM Hepes, 5 mM taurine, 5 mM creatine, 2 mM L-carnitine (Sigma), 20 U/ml insulin (GIBCO), 0.2% BSA, penicillin (100 U/ml), and streptomycin (100 μg/ml)). Cells were stimulated in culture medium without BSA containing 2 mM L-glutamine. Neonatal and adult cardiomyocytes were initially cultured for 48 h in the presence of 20 μM cytosine β-D-arabinofuranoside (araC, Sigma) and 5% horse serum before stimulation to prevent proliferation of non-myocytes. Adult cardiomyocytes were incubated another 3 days with araC during stimulation. Neonatal cardiomyocytes were stimulated every day with growth factors for BrdU and H3P analyses (FGF1 and NRG-1-1β at 50 ng/ml, IL-1β at 100 ng/ml, R&D Systems, all diluted in 0.1% BSA/PBS). SB203580 and LY294002 (Calbiochem) was added every day. Adult cardiomyocytes were stimulated with fresh medium and SB203580 every 3 days.
RNA of neonatal cardiomyocytes was prepared 72 h after stimulation using Trizol (Invitrogen). RT-PCR was performed following standard protocols (Supplemental Table S4). Affymetrix technology was applied using the Rat Expression Set 230.
To determine the effect of p38 inhibition on cardiomyocyte differentiation and proliferation, a specific inhibitor of p38α and p38β, SB203580, was used and evaluated using cDNA microarray analyses using neonatal rat cardiomyocytes. […] Expression changes of a subset of genes were validated by RT-PCR.
Stimulation of neonatal cardiomyocytes with FGF1 induces fetal gene expression. To determine if FGF1, in combination with p38 inhibition, can reverse differentiation and induce cell cycle re-entry, we repeated cDNA microarray analyses (Supplemental Table S1). […]

FGF1: growth factor FGF1 (R&D Systems)
Growth response protein (CL-6) expression, x-fold change: 2.5 x-fold and 1.8 x-fold
Hepatocyte F2alpha receptor expression, x-fold change: 0.9 x-fold and 1.0 x-fold
IBP6 expression, x-fold change: 0.6 x-fold and 0.9 x-fold
IGF1 expression, x-fold change: 0.5 x-fold and 0.3 x-fold
IGFBP3 expression, x-fold change: 0.3 x-fold and 0.4 x-fold
IL12a expression, x-fold change: 2.9 x-fold and 2.8 x-fold
IRX4 expression, x-fold change: 0.7 x-fold and 0.9 x-fold
Id1 expression, x-fold change: 2.7 x-fold and 2.3 x-fold
Id3a expression, x-fold change: 2.4 x-fold and 1.9 x-fold
Integrin, alpha 6 expression, x-fold change: 2.4 x-fold and 2.5 x-fold
Integrin, alpha 11 expression, x-fold change: 1.7 x-fold and 1.2 x-fold
Jag1 expression, x-fold change: 0.4 x-fold and 0.6 x-fold
Ki67 expression, x-fold change: 1.7 x-fold and 1.5 x-fold
Kinesin family member 22 expression, x-fold change: 1.6 x-fold and 1.7 x-fold
Kinetochore-associated protein 1 expression, x-fold change: 1.9 x-fold and 2.1 x-fold
Kruppel-like factor 2 expression, x-fold change: 0.7 x-fold and 0.9 x-fold
LDLR expression, x-fold change: 4.0 x-fold and 2.7 x-fold
Lgals1 expression, x-fold change: 1.8 x-fold and 1.7 x-fold
Lgals9 expression, x-fold change: 4.3 x-fold and 3.1 x-fold
Lhcgr expression, x-fold change: 0.4 x-fold and 0.8 x-fold
Lisch7 expression, x-fold change: 0.6 x-fold and 0.8 x-fold
Lot1 expression, x-fold change: 0.3 x-fold and 0.4 x-fold
M-protein expression, x-fold change: 8.7 x-fold and 11.0 x-fold
MAD2-LIKE 1 expression, x-fold change: 1.5 x-fold and 2.8 x-fold
MCAK expression, x-fold change: 1.8 x-fold and 1.7 x-fold
MCIP1 expression, x-fold change: 3.0 x-fold and 3.3 x-fold
MCP-3 expression, x-fold change: 1.3 x-fold and 0.7 x-fold
MDP77 expression, x-fold change: 1.5 x-fold and 0.8 x-fold
MKK6 expression, x-fold change: 0.2 x-fold and 0.1 x-fold
MLC1, atrial isoform expression, x-fold change: 3.3 x-fold and 2.8 x-fold
MLC 2a expression, x-fold change: 2.7 x-fold and 2.1 x-fold
MLC3, alkali expression, x-fold change: 13.9 x-fold and 23.2 x-fold
MPP1 expression, x-fold change: 1.4 x-fold and 2.0 x-fold
MURF1 expression, x-fold change: 0.6 x-fold and 0.5 x-fold
MURF expression, x-fold change: 0.8 x-fold and 0.9 x-fold
Mapt expression, x-fold change: 1.7 x-fold and 1.9 x-fold
Mdk expression, x-fold change: 0.4 x-fold and 0.6 x-fold
Melusin expression, x-fold change: 3.8 x-fold and 3.0 x-fold
Moesin expression, x-fold change: 2.2 x-fold and 2.4 x-fold
Multi PDZ domain protein 1 expression, x-fold change: 0.3 x-fold and 0.6 x-fold
Mustang expression, x-fold change: 4.8 x-fold and 5.2 x-fold
Myopodin expression, x-fold change: 3.7 x-fold and 3.2 x-fold
NppB expression, x-fold change: 10.4 x-fold and 11.6 x-fold
Nppa expression, x-fold change: 3.1 x-fold and 3.5 x-fold
Nr1h3 expression, x-fold change: 0.7 x-fold and 0.6 x-fold
Nrtn expression, x-fold change: 0.4 x-fold and 0.6 x-fold
Ntf3 expression, x-fold change: 0.2 x-fold and 0.3 x-fold
NuSAP expression, x-fold change: 1.5 x-fold and 1.4 x-fold
Nuclear receptor co-activator NRIF3 expression, x-fold change: 1.4 x-fold and 1.2 x-fold
Osteoblast specific factor expression, x-fold change: 0.3 x-fold and 0.2 x-fold
P57 expression, x-fold change: 0.2 x-fold and 0.3 x-fold
PAPIN expression, x-fold change: 0.5 x-fold and 0.7 x-fold
PEA-15 expression, x-fold change: 2.5 x-fold and 2.1 x-fold
PRKAR2 expression, x-fold change: 1.6 x-fold and 1.2 x-fold
PTP-RL9, receptor-type protein tyrosine phosphatase expression, x-fold change: 1.1 x-fold and 0.8 x-fold
Pdcd4 expression, x-fold change: 0.8 x-fold and 0.7 x-fold
Pdgfra expression, x-fold change: 0.4 x-fold and 0.3 x-fold
Pem expression, x-fold change: 0.9 x-fold and 0.7 x-fold
Plasminogen activator inhibitor 1 expression, x-fold change: 5.3 x-fold and 8.8 x-fold
Pleiotrophin expression, x-fold change: 0.2 x-fold and 0.1 x-fold
Polyamine-modulated factor 1 expression, x-fold change: 1.5 x-fold and 1.4 x-fold
Prc1 expression, x-fold change: 2.4 x-fold and 1.9 x-fold
Prg-1 expression, x-fold change: 0.2 x-fold and 0.3 x-fold
Protease inhibitor 7 expression, x-fold change: 1.3 x-fold and 0.8 x-fold
Protein-tyrosine phosphatase expression, x-fold change: 0.5 x-fold and 0.6 x-fold
Ptpla expression, x-fold change: 3.3 x-fold and 2.2 x-fold
Ptprc/CD45 expression, x-fold change: 0.5 x-fold and 0.7 x-fold
RAC2 expression, x-fold change: 0.7 x-fold and 0.6 x-fold
RAD51 expression, x-fold change: 1.5 x-fold and 1.0 x-fold
RNA binding motif protein 5 expression, x-fold change: 0.6 x-fold and 0.5 x-fold
ROC2 expression, x-fold change: 1.6 x-fold and 2.4 x-fold
Rac GTPase-activating protein 1 expression, x-fold change: 1.3 x-fold and 1.9 x-fold
Retinoic acid inducible protein 3 expression, x-fold change: 1.5 x-fold and 1.3 x-fold
Retinoic acid receptor, gamma expression, x-fold change: 0.6 x-fold and 1.0 x-fold
Rgpr expression, x-fold change: 0.6 x-fold and 0.9 x-fold
Rgs3 expression, x-fold change: 1.3 x-fold and 1.9 x-fold
Rho family GTPase 1 expression, x-fold change: 4.1 x-fold and 3.9 x-fold
Rho-related BTB domain containing 3 expression, x-fold change: 0.5 x-fold and 0.6 x-fold
SHARP-1/dec2/Bhlhb3 expression, x-fold change: 0.2 x-fold and 0.3 x-fold
SPARC related modular calcium binding 2 expression, x-fold change: 0.3 x-fold and 0.4 x-fold
STK38 expression, x-fold change: 3.9 x-fold and 2.0 x-fold
STk18 expression, x-fold change: 1.3 x-fold and 1.9 x-fold
Semaphorin 4B expression, x-fold change: 0.6 x-fold and 0.5 x-fold
Semaphorin 6D-1 expression, x-fold change: 0.5 x-fold and 0.3 x-fold
Sh3kbp1 expression, x-fold change: 1.1 x-fold and 0.9 x-fold
Shc SH2-domain binding protein 1 expression, x-fold change: 1.6 x-fold and 1.1 x-fold
Smooth muscle 22 protein expression, x-fold change: 1.2 x-fold and 1.4 x-fold
Snf1lk expression, x-fold change: 3.5 x-fold and 3.9 x-fold
Soluble fibroblast growth factor receptor IIIb (sKGF-R gene) expression, x-fold change: 0.9 x-fold and 0.8 x-fold
Sox4 expression, x-fold change: 0.7 x-fold and 0.6 x-fold
Sox11 expression, x-fold change: 0.9 x-fold and 1.3 x-fold
Spag5 expression, x-fold change: 1.4 x-fold and 1.9 x-fold
Sponf expression, x-fold change: 0.2 x-fold and 0.3 x-fold
Stathmin expression, x-fold change: 1.2 x-fold and 1.6 x-fold
TBX2 expression, x-fold change: 1.8 x-fold and 2.0 x-fold
Testin expression, x-fold change: 0.6 x-fold and 0.7 x-fold
Tgf beta 2 expression, x-fold change: 1.4 x-fold and 1.5 x-fold
Tgfbr2 expression, x-fold change: 0.5 x-fold and 0.9 x-fold
Thymidine kinase expression, x-fold change: 1.5 x-fold and 1.9 x-fold
Tieg expression, x-fold change: 0.3 x-fold and 0.4 x-fold
Tmeff1 expression, x-fold change: 2.1 x-fold and 2.4 x-fold
Tnfrsf12a expression, x-fold change: 3.7 x-fold and 3.3 x-fold
Topoisomerase (DNA) II alpha expression, x-fold change: 1.8 x-fold and 1.7 x-fold
Transferrin receptor expression, x-fold change: 2.9 x-fold and 1.6 x-fold
Tspan-2 expression, x-fold change: 2.4 x-fold and 1.8 x-fold
Tspan-6 expression, x-fold change: 2.2 x-fold and 1.7 x-fold
Tubulin alpha-4 expression, x-fold change: 2.7 x-fold and 2.6 x-fold
Tubulin beta class I expression, x-fold change: 2.4 x-fold and 1.9 x-fold
Tubulin, beta 2 expression, x-fold change: 1.3 x-fold and 1.2 x-fold
Unc5h2 expression, x-fold change: 1.7 x-fold and 1.3 x-fold
VEGF receptor-2FLK-1 expression, x-fold change: 1.8 x-fold and 1.6 x-fold
VEGFD expression, x-fold change: 0.1 x-fold and 0.2 x-fold
Vegfc expression, x-fold change: 0.4 x-fold and 0.6 x-fold
